In patent publication US12279621B1, “Insect neuropeptides 3” (Solasta Bio Limited, priority 2023, dated 2025):

System: Spodoptera frugiperda
Experiment: Lepidoptera artificial diet assay
Type: in vivo
Conditions: unformulated peptide, final concentration 1×10^−4 M in diet, one L1 larva per cell, n=10, 168 hrs; compared to negative control vehicle and DDT
Protocol: One larva was assayed per cell. (n=10). Frontier Lepidoptera artificial diet was made up by preparing agar at 1% and then mixing it with artificial diet powder. Peptide solution was aliquoted in 10 cells and diet poured straight onto it. The final concentration of the peptide was 1×10^−4 M, and each peptide was aliquoted in 10 cells. Once the diet solidified and cooled down, one L1 larvae was infested in each cell. The trays were sealed with heat and let larva were allowed to develop for 168 hrs. Finally, pupation and mortality were scored for. Lepidoptera artificial diet assays were performed with SB-P-80, and compared to a negative control vehicle and the insecticide dichlorodiphenyltrichloroethane (DDT).

[Hy]-NADEDQQQSVDFTPRL-[NH2] (H-NADEDQQQSVDFTPRL-NH2) [SB-P-80, pyrokinin peptide according to the invention]
activity (pupation and mortality scored) in lepidoptera artificial diet assay: much higher activity
